Source: BindingDB's records for doi:10.1021/jm970397q (Merck Research Laboratories, 1997)
Structures can show the parent of a compound that is named as a salt.

Target: Prothrombin (Homo sapiens, UniProt P00734)
Assay: Inhibition of Thrombin
Conditions: read-out: kon (M-1-s-1)

SMILES	kon [M⁻¹ s⁻¹]
NC1CCC(CNC(=O)[C@@H]2CCCN2C(=O)CC2c3ccccc3C=Cc3ccccc32)CC1 (stereo partly drawn) [(S)-1-(2-5H-Dibenzo[a,d]cyclohepten-5-yl-acetyl)-pyrrolidine-2-carboxylic acid (4-amino-cyclohexylmethyl)-amide; hydrochloride]	1.8e+08
NC1CCC(CNC(=O)[C@@H]2CCCN2C(=O)CC(C2CCCCC2)C2CCCCC2)CC1 (stereo partly drawn) [(S)-1-(3,3-Dicyclohexyl-propionyl)-pyrrolidine-2-carboxylic acid (4-amino-cyclohexylmethyl)-amide; hydrochloride]	2.3e+08
NC1CCC(CNC(=O)[C@@H]2CCCN2C(=O)CC(c2ccccc2)c2ccccc2)CC1 (stereo partly drawn) [(S)-1-(3,3-Diphenyl-propionyl)-pyrrolidine-2-carboxylic acid (4-amino-cyclohexylmethyl)-amide; TFA]	2.1e+08
NC1CCC(CNC(=O)[C@@H]2CCCN2C(=O)CC(c2cccnc2)c2ccc3c(c2)OCO3)CC1 (stereo partly drawn) [(S)-1-(3-Benzo[1,3]dioxol-5-yl-3-pyridin-3-yl-propionyl)-pyrrolidine-2-carboxylic acid (4-amino-cyclohexylmethyl)-amide; TFA]	2.51e+08
NC1CCC(CNC(=O)[C@@H]2CCCN2C(=O)CC(c2ccccc2)c2ccccn2)CC1 (stereo partly drawn) [(S)-1-(3-Phenyl-3-pyridin-2-yl-propionyl)-pyrrolidine-2-carboxylic acid (4-amino-cyclohexylmethyl)-amide; TFA]	1.8e+08
NC1CCC(CNC(=O)[C@@H]2CCCN2C(=O)CC(c2ccccc2)c2cccnc2)CC1 (stereo partly drawn) [(S)-1-(3-Phenyl-3-pyridin-3-yl-propionyl)-pyrrolidine-2-carboxylic acid (4-amino-cyclohexylmethyl)-amide; TFA]	2.1e+08
NC1CCC(CNC(=O)[C@@H]2CCCN2C(=O)CC(c2ccccc2)c2ccncc2)CC1 (stereo partly drawn) [(S)-1-(3-Phenyl-3-pyridin-4-yl-propionyl)-pyrrolidine-2-carboxylic acid (4-amino-cyclohexylmethyl)-amide; TFA]	1.55e+08
